Experimental data: US20220193201A1, “GLP-1R AGONIST REDUCES RETINAL INFLAMMATION AND NEURON DEATH SECONDARY TO OCULAR HYPERTENSION” (THE TRUSTEES OF THE UNIVERSITY OF PENNSYLVANIA, priority 2020, published 2022)

What was measured:
[1] = cited from earlier work
NFκB [2] = conditions: GLP-1R-dependent manner; cited from earlier work
[3] = system: retinal ganglion cells (RGCs); assay: Retinal ganglion cell counting on retinal flatmounts (Brn3a, Rbpms), microbead eIOP model, subcutaneous NLY01; assay type: in vivo, mouse; conditions: 42 days; NLY01 5 mg/kg twice weekly vs NSS; bead eye normalized to BSS eye
[4] = Intraocular pressure (IOP) measurement in microbead-induced ocular hypertension mouse glaucoma model; conditions: NLY01 5 mg/kg s.c. twice weekly vs normal saline; IOP across the study
[5] = system: ACSA2+ cells (astrocyte and Müller cell enriched); assay: qPCR of pan reactive, A1-specific transcripts and C3 in ACSA2+ retinal cells of microbead-injected mice; assay type: in vivo, mouse; conditions: NLY01 5 mg/kg s.c. twice weekly vs NSS
CD11b+ CD11c− cells = assay: qPCR of Il1a, Tnf, C1qa mRNA in CD11b+ CD11c- cells sorted from neurosensory retina of microbead-injected mice; assay type: in vivo, mouse; conditions: NLY01 5 mg/kg s.c. twice weekly vs NSS
NFκB [6] = assay: phospho-NFκB/total NFκB ELISA and NFκBIA (IκBα) qPCR in sorted CD11b+ retinal cells of microbead-injected mice; assay type: in vivo, mouse; conditions: 42nd day post-injection; CD11b+ CD11c− and CD11b+ CD11c+ cells; NLY01 5 mg/kg s.c. twice weekly vs NSS
Experimental: FIGS. 11A-11D show NLY01 modulates NFκB signaling in CD11b+ CD11c− and CD11b+ CD11c+ cells. Related to FIGS. 4A-4H and 5A-5H. C57BL6/J (WT) mice were injected either with microbeads (“Bead”, left eye), to increase intraocular pressure (IOP), or with BSS (right eye). Following intraocular injections, mice were randomized to twice weekly subcutaneous NLY01 (5 mg kg^−1 per injection) or normal saline solution (NSS). 42 days post-injection mice were euthanized, neurosensory retina (“NSR”) was harvested and sorted as described in FIG. 9A to isolate CD11b+CD11c− and CD11b+ CD11c+ cells. […] All data presented as mean±SEM. Ordinary one-way ANOVA, *p<0.05, **p<0.01, ***p<0.001, ****p<0.0001.
ACSA2+, CD11b+ CD11c−, and CD11b+ CD11c+ cells were isolated from adult murine retinas using the Miltenyi Adult Brain Dissociation Kit (Miltenyi Biotec, 130-107-677) and MACS magnetic cell separation system. […]
ELISA kits were used to measure protein levels of IL-1α (BMS627, Thermofisher Scientific), TNF-α (BMS607-3, Thermofisher Scientific), C1q (LS-F55223-1, LifeSpan BioSciences), C3 (ab157711, Abcam), and phospho-NFκB/total NFκB (Thermofisher Scientific, 50-246-259) according to the manufacturer's protocol. […] Protein levels were determined by comparing the absorbance produced by the samples with that of a calibration curve. […]

[7] = cited from earlier work; remark: listed apart in the source
CD11b+ CD11c+ cells = assay: qPCR of Il1a, Tnf, C1qa mRNA in CD11b+ CD11c+ cells sorted from neurosensory retina of microbead-injected mice; assay type: in vivo, mouse; conditions: NLY01 5 mg/kg s.c. twice weekly vs NSS
[8] = mouse model of Parkinson's disease

## NLY01: pegylated exendin-4 (exenatide); long-acting GLP-1R agonist, obtained from Neuraly
[1]; [8]
  microglia density: reduces
  relative IBA1 levels: reduces
[1]; mouse models of PD
  A1 astrocyte transformation: blocking
  dopaminergic cell death: reducing
  microglial production of C1q, TNF-α, and IL-1α: reduce
  motor symptoms: improving
NFκB [2]
  nuclear translocation and phosphorylation of NFκB in brain microglia: reduce
[3]
  RGC death secondary to eIOP, Brn3a+ cell counting: reduced
  RGC death secondary to eIOP, RBPMS+ cell counting: reduced
[4]
  effect on intraocular pressure in microbead- or BSS-injected eyes: no effect
[5]; 14th day post-injection
  expression of A1-specific transcripts in ACSA2+ fraction: reduced
  expression of C3 in ACSA2+ fraction: reduced
  expression of pan reactive transcripts in ACSA2+ fraction: reduced
[5]; 42nd day post-injection
  expression of A1-specific transcripts in ACSA2+ fraction: reduced
  expression of C3 in ACSA2+ fraction: reduced
  expression of pan reactive transcripts in ACSA2+ fraction: reduced
CD11b+ CD11c− cells; 14th day post-injection
  CD11b+ CD11c− basal expression of C1q: without altering
  CD11b+ CD11c− basal expression of IL-1a: without altering
  CD11b+ CD11c− upregulation of TNF-α: reduced
CD11b+ CD11c− cells; 42nd day post-injection
  CD11b+ CD11c− expression of C1q: reduced
  CD11b+ CD11c− expression of IL-1α: reduced
  CD11b+ CD11c− expression of TNF-α: reduced
NFκB [6]
  mRNA levels of IκBα: increased
  phosphorylated NFκB protein levels: decreased
[7]; in vivo
  blood-brain barrier penetration: favorable
  half-life: extended
[7]; mouse models of Parkinson's disease
  NLY01 concentrations in the brain, Parkinson's disease mouse models vs WT animals: higher
CD11b+ CD11c+ cells; 14th day post-injection
  CD11b+ CD11c+ expression of C1q: reduced
  CD11b+ CD11c+ expression of IL-1α: reduced
  CD11b+ CD11c+ expression of TNF-α: reduced
CD11b+ CD11c+ cells; 42nd day post-injection
  second cell population (CD11b+ CD11c−) expression of C1q: reduced
  second cell population (CD11b+ CD11c−) expression of IL-1α: reduced
  second cell population (CD11b+ CD11c−) expression of TNF-α: reduced
